Laboratory results as given in patent publication US11613538B2, “Method of inhibiting or reducing a viral infection” (PTC Therapeutics, Inc., priority 2009, dated 2023).
Read-outs that look alike come from different tables or passages of the source.

Key:
[1] = test system: MT-2 cells; assay: CC50 in MT-2 cells (antiviral assay panel); assay type: cell-based, human; settings: HIV-1 assay line
[2] = test system: Caki-1 cells; assay: Caki-1 renal cell carcinoma xenograft (VHL-positive), tumor volume; assay type: in vivo, mice; settings: for Tumor size (mean±SD): PO
Protocol: The Caki-1 cell line expresses the von Hippel-Lindau (VHL) protein which acts as a tumor suppressor by promoting the rapid degradation of HIF-1α (hypoxia-inducible factor 1α) under normoxia. Under hypoxic conditions, HIF-1α is stabilized and activated by the inability of VHL to act resulting in increased transcription of VEGF that is responsible for the high vascularization of RCC (see Turcotte et al, 2003, Zimmer et al, 2004).
(§1) A total of 100 mice were injected, of which 60 were used in the study.
Groups were taken off study when the mean tumor volume in a group was 1300 mm^3 or more. Vehicle-treatment started on Day 0 and continued through Day 35. Compound #10-treatment started on Day 0 and continued through Day 52.
(§2) Tumors were measured twice per week using digital calipers.
[…] The median values were reported.

[3] = test system: 786-O cells; assay: 786-O renal cell carcinoma xenograft (VHL-negative), tumor volume; assay type: in vivo, mice; settings: for Tumor size (mean±SD): PO
Protocol: Both sunitinib and rapamycin are used clinically for treatment of renal cancer.
as §1
Groups were taken off study when the mean tumor volume in a group was 1300 mm^3 or more. Vehicle-treatment started on Day 0 and continued through Day 57. Compound #10-treatment started on Day 0 and continued through Day 88.
as §2
The time to progression to reach a tumor volume 1000 mm^3 was calculated for each mouse. The median values were reported.

[4] = test system: Vaccinia; assay: microbe, parasite or virus in culture; assay type: cell-based; settings: Orthopoxvirus vaccinia, Vero C1008
[5] = test system: PV strain Mahoney; assay: microbe, parasite or virus in culture; assay type: cell-based, poliovirus
[6] = Whole-body autoradiography: brain tissue plasma concentration ratios (blood-brain barrier penetration); assay type: in vivo, rats; settings: in words
[7] = test system: Vero cells; settings: monkey
[8] = test system: Parainfluenza; assay: Parainfluenza CPE protection assay in Vero cells; assay type: cell-based, parainfluenza virus
[9] = test system: Yellow Fever; assay: microbe, parasite or virus in culture; assay type: cell-based, yellow fever virus
[10] = test system: Dengue 2; assay: Dengue 2 CPE protection assay in Vero E6 cells; assay type: cell-based, dengue virus
[11] = test system: MDCK cells; settings: dog
[12] = test system: HIV-1; assay: HIV-1 CPE protection assay in MT-2 cells; assay type: cell-based
Protocol: Antiviral activity against HIV-1 is determined in a human cell line. […] The activity against HIV may also be tested in human peripheral blood mononuclear cells in cell culture.

[13] = 786-O xenograft study: body weight and clinical observations; settings: 786-O study, in words
[14] = test system: RSV; assay: RSV CPE protection assay in Vero cells; assay type: cell-based, respiratory syncytial virus
[15] = test system: WNV; assay: WNV CPE protection assay in Vero cells (MTS); assay type: cell-based, West Nile virus
Protocol: Antiviral activity of a Compound against WNV is tested in Vero cells by protection of virus induced cytopathic effects (i.e. cytoprotection measured as cell viability, IC50). The effect of a Compound on inhibition of virus induced cytopathic effects is determined using MTS (CellTiter) assay.

[16] = test system: HCV genotype 1b replicon; assay: HCV subgenomic replicon assay, genotype 1b; assay type: cell-based; settings: Hepatitis C virus
[17] = test system: protein expression in RCC lines 786-0, 769-P and A498; assay: Western blot of protein expression in panel of RCC lines (786-0, 769-P and A498) (FIG. 8); assay type: cell-based; settings: monotherapy at different μM dose levels; in words
[18] = test system: HeLa cells; settings: human
[19] = test system: Adenovirus; assay: Adenovirus CPE protection assay in HeLa cells; assay type: cell-based
[20] = test system: Influenza A; assay: microbe, parasite or virus in culture; assay type: cell-based, influenza virus
[21] = test system: Vero E6 cells
[22] = test system: HSV-1; assay: HSV-1 CPE protection assay in Vero cells; assay type: cell-based, herpes simplex virus-1
[23] = Caki-1 xenograft study: body weight and clinical observations; assay type: in vivo, mice; settings: Caki-1 study
Excerpt: Body Weight: The mice were weighed once per week.

[24] = test system: c-Myc expression in 786-O cells; assay: Western blot of protein expression in 786-O Renal Cancer Cell line (FIG. 7A); assay type: cell-based; settings: different dose levels (1 μM and 10 μM), in words
Excerpt: The Vinculin, c-Myc, Survivin, ornithine decarboxylase (ODC), Cyclin D and pS6 mRNA are cap-dependent mRNAs that are considered difficult to translate. The blots for each mRNA shown were translated via a cap-independent manner with mTOR inhibition (Akt has been inactivated).

[25] = human respiratory syncytial virus, Vero

COc1ccc([C@H]2c3[nH]c4ccc(Cl)cc4c3CCN2C(=O)Oc2ccc(Cl)cc2)cc1 (racemic) [Compound #10]
CC50 [1]: 4.1 nM
Median time to reach 1500 mm^3 [2]: 39 days
Median time for tumors to reach 1000 mm^3 ([2]; Compound #10 10 mg/kg QD PO, sunitinib 75 mg/kg QD PO, rapamycin 15 mg/kg PO): 39 days
Tumor size (mean±SD) ([2]; Day 35, 10 mg/kg QD): 866±450 mm^3
Tumors smaller than those in vehicle-treated mice ([2]; Day 35, Compound #10 10 mg/kg QD PO, sunitinib 75 mg/kg QD PO, rapamycin 15 mg/kg PO): 44%
Tumor size (mean±SD) ([2]; Day 52, 10 mg/kg QD): 1538±1070 mm^3
Median time for tumors to reach 1000 mm^3 ([3]; Compound #10 10 mg/kg QD PO, sunitinib 75 mg/kg QD PO, rapamycin 15 mg/kg PO, time on study used if not reached): 71 days
Tumor size (mean±SD) ([3]; Day 57, 10 mg/kg QD): 945±408 mm^3
Tumors smaller than those in vehicle-treated mice ([3]; Day 57, Compound #10 10 mg/kg QD PO, sunitinib 75 mg/kg QD PO, rapamycin 15 mg/kg PO): 34%
Tumor size (mean±SD) ([3]; Day 88, 10 mg/kg QD): 1569±671 mm^3
Cure (tumor size <60 mm^3, not measurable) ([3]; Mouse 2-10, 10 mg/kg, in words): cured
IC50 [4]: 40 nM
IC90 [4]: 80 nM
IC50 ([5]; Enterovirus C, HeLa): 0.57 nM
IC90 ([5]; Enterovirus C, HeLa): 2.8 nM
IC50 ([5]; Enterovirus C, HeLa, read-out: average IC50): 0.6 nM
decrease in activity when added at the time of infection ([5]; infected HeLa cells): 65 fold
Blood-brain barrier penetration [6]: penetrates the blood-brain barrier
CC50 [7]: > 1000 nM
IC50 ([8]; Parainfluenza, (−) RNA, Vero, CPE protection): 29 nM
IC90 ([8]; Parainfluenza, Vero, CPE protection): 44 nM
Activity against parainfluenza virus ([8]; in words): potent activity
IC50 ([9]; Yellow fever virus, HeLa): > 1000 nM
IC90 ([9]; Yellow fever virus, HeLa): > 1000 nM
Activity against yellow fever ([9]; at the doses tested, in words): inactive
IC50 ([10]; Dengue virus, Vero C1008, Dengue 2, (+) RNA, Vero E6, CPE protection): > 1000 nM
IC90 ([10]; Dengue virus, Vero C1008, Dengue 2, Vero E6, CPE protection): > 1000 nM
Activity against dengue ([10]; at the doses tested, in words): inactive
CC50 [11]: > 1000 nM
IC50 ([12]; Human immunodeficiency virus 1, MT2): 22 nM
EC50 ([12]; Human immunodeficiency virus 1, MT2, 72 h, human cell line, 3 days post-infection, normalized to cell number after treatment in the absence of infection, read-out: EC50, prevention of cytopathic effect): 22 nM
Survival of treated mice ([13]; all mice): survived until sacrificed
Body weight change from initial body weight [13]: did not lose weight
IC50 [14, 25]: 250 nM
IC90 [14, 25]: ≥ 160 nM
Activity against respiratory syncytial virus (RSV) ([14]; in words): potent activity
IC50 ([15]; West Nile virus, WNV, (+) RNA, Vero, CPE protection): 67 nM
IC90 ([15]; West Nile virus, WNV, Vero, CPE protection): 280 nM
Activity against West Nile virus (WNV) ([15]; in words): potent activity
IC50 [16]: 1 nM
IC50 ([16]; read-out: average IC50): 36 nM
Effect on protein expression (FIG. 8) [17]: dose-dependent and depended on the RCC line used
CC50 [18]: > 1000 nM
Inhibition of adenovirus ([19]; at the doses tested, in words): did not inhibit
IC50 ([19]; unidentified adenovirus, Adenovirus, DNA, HeLa, CPE protection): > 1000 nM
IC90 ([19]; unidentified adenovirus, Adenovirus, HeLa, CPE protection): > 1000 nM
Inhibition of influenza virus [20]: did not exhibit any selective inhibition
IC50 ([20]; Influenza A virus, MDCK): > 1000 nM
IC90 ([20]; Influenza A virus, MDCK): > 1000 nM
CC50 ([21]; Dengue 2 assay line): 700 nM
CC50 ([21]; Vaccinia assay line): 83 nM
IC50 ([22]; Human alphaherpesvirus 1, HSV-1, DNA, Vero, CPE protection): > 1000 nM
IC90 ([22]; Human alphaherpesvirus 1, HSV-1, Vero, CPE protection): > 1000 nM
Inhibition of herpes simplex virus-1 (HSV-1) ([22]; at the doses tested, in words): did not inhibit
Body weight loss from Day 0 ([23]; Day 8 and Day 14): 2.2%
Survival of treated mice ([23]; all mice, in words): survived until sacrificed
Body weight change from initial body weight ([23]; in words): transiently lost weight
Suppression of c-Myc expression (FIG. 7A) [24]: not completely effective in suppressing c-Myc expression
